# Values quoted from earlier work in patent US20040096420A1, “Compositions and methods for treating baldness” (priority 2000, published 2004).
# Tested on: genetic hair loss
# Details: dosages from 75 to 100 mg per day; Rushton and Ramsay, 1992; Rushton et al. 1991
smiles,measurement,value
CC(=O)S[C@@H]1CC2=CC(=O)CC[C@]2(C)[C@H]2CC[C@@]3(C)[C@@H](CC[C@@]34CCC(=O)O4)[C@H]12 [spironolactone],benefit in hair loss,some benefit
